Results as given in ChEMBL document CHEMBL5678818, “Discovery of potent SOS1 inhibitors that block RAS activation via disruption of the RAS-SOS1 interaction” (Proc Natl Acad Sci U S A, 2019).

Columns and labels:
[1] = target: T1, Ephrin type-A receptor 8 (Homo sapiens) (UniProt P29322); assay: Inhibition of EPHA8 (unknown origin) assessed as residual activity at 1000 nM by KINOMEscan analysis relative to control
T1 sequence (whole entry): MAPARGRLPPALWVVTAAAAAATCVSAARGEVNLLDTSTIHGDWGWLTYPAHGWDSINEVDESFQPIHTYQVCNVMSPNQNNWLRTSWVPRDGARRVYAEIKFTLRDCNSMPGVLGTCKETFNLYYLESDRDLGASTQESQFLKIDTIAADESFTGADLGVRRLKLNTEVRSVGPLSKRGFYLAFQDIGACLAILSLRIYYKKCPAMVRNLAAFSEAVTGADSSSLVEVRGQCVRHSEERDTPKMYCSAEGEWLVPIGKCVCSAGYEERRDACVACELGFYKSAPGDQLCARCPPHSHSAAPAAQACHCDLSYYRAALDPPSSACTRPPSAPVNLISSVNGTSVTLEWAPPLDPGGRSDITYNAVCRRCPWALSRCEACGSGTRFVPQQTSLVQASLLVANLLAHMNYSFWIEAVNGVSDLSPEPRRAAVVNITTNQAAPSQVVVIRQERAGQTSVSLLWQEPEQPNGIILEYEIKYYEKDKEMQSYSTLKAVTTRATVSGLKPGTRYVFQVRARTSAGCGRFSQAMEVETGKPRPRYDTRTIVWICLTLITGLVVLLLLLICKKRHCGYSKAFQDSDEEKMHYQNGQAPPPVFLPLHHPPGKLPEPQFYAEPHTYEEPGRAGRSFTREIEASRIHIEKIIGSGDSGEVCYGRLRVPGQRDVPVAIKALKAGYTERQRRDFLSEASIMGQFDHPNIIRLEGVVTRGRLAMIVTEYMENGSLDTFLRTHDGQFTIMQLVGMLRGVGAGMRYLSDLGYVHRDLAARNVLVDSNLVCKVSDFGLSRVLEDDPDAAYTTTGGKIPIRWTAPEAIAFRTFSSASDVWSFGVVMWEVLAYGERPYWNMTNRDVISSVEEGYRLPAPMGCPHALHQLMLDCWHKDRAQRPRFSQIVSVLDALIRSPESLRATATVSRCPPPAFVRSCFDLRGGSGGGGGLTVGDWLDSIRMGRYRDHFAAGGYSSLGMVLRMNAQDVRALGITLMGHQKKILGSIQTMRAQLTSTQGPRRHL

[2] = target: Serine/threonine-protein kinase 10 (Homo sapiens) (UniProt O94804); assay: Inhibition of LOK (unknown origin) assessed as residual activity at 1000 nM by KINOMEscan analysis relative to control
Sequence of Serine/threonine-protein kinase 10 (Homo sapiens) (O94804 whole entry, looked up, the tested form may be a part): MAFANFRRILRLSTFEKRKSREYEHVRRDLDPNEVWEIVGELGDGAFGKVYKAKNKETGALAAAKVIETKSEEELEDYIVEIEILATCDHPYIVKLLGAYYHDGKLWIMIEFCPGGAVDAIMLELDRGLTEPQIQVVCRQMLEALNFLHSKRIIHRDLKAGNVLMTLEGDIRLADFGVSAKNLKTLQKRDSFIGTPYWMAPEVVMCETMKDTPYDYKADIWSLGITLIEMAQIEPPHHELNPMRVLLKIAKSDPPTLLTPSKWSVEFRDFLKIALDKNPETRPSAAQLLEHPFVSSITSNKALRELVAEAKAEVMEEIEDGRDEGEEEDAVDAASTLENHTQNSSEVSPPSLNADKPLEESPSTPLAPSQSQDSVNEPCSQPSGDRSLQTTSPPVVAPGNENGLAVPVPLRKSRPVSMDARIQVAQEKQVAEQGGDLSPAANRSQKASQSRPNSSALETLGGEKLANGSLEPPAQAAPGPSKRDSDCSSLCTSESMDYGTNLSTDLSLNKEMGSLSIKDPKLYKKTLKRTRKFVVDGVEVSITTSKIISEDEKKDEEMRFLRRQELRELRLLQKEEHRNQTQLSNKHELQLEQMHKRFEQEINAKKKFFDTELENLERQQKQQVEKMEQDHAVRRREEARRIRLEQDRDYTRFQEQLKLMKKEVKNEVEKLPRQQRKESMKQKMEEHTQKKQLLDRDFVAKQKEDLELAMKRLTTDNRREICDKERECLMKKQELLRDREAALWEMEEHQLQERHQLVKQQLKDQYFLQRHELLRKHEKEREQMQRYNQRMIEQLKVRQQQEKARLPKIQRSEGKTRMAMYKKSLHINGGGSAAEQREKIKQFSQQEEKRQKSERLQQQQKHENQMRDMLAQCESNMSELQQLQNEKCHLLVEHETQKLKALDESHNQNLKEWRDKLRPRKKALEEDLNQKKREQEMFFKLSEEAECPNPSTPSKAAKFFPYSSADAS

[3] = target: Ribosomal protein S6 kinase alpha-3 (Homo sapiens) (UniProt P51812); assay: Inhibition of C-terminal RSK2 kinetic domain 2 (unknown origin) assessed as residual activity at 1000 nM by KINOMEscan analysis relative to control
Sequence of Ribosomal protein S6 kinase alpha-3 (Homo sapiens) (P51812 whole entry, the tested form may be a part): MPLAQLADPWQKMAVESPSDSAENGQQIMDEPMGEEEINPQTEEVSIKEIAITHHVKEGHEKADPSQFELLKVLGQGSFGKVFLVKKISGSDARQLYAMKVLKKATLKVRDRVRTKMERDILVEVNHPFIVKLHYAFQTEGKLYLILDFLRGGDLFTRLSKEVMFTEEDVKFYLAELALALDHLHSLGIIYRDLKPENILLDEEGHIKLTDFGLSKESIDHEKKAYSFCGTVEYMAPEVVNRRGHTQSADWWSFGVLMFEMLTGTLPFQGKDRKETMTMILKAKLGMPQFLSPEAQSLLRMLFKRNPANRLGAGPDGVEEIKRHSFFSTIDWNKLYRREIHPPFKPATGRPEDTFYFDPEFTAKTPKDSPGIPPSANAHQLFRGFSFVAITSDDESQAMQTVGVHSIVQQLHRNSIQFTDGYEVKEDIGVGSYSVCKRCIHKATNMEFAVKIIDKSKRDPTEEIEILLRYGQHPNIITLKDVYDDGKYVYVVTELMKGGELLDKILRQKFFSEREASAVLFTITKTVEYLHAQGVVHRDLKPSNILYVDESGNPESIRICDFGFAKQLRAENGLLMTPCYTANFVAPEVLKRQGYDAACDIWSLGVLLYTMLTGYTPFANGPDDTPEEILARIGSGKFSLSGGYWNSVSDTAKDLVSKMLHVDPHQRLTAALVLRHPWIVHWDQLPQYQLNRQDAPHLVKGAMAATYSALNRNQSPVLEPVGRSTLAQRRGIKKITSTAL

[4] = target: T2, Serine/threonine-protein kinase TAO2 (Homo sapiens) (UniProt Q9UL54); assay: Inhibition of TAOK2 (unknown origin) assessed as residual activity at 1000 nM by KINOMEscan analysis relative to control
T2 sequence (whole entry): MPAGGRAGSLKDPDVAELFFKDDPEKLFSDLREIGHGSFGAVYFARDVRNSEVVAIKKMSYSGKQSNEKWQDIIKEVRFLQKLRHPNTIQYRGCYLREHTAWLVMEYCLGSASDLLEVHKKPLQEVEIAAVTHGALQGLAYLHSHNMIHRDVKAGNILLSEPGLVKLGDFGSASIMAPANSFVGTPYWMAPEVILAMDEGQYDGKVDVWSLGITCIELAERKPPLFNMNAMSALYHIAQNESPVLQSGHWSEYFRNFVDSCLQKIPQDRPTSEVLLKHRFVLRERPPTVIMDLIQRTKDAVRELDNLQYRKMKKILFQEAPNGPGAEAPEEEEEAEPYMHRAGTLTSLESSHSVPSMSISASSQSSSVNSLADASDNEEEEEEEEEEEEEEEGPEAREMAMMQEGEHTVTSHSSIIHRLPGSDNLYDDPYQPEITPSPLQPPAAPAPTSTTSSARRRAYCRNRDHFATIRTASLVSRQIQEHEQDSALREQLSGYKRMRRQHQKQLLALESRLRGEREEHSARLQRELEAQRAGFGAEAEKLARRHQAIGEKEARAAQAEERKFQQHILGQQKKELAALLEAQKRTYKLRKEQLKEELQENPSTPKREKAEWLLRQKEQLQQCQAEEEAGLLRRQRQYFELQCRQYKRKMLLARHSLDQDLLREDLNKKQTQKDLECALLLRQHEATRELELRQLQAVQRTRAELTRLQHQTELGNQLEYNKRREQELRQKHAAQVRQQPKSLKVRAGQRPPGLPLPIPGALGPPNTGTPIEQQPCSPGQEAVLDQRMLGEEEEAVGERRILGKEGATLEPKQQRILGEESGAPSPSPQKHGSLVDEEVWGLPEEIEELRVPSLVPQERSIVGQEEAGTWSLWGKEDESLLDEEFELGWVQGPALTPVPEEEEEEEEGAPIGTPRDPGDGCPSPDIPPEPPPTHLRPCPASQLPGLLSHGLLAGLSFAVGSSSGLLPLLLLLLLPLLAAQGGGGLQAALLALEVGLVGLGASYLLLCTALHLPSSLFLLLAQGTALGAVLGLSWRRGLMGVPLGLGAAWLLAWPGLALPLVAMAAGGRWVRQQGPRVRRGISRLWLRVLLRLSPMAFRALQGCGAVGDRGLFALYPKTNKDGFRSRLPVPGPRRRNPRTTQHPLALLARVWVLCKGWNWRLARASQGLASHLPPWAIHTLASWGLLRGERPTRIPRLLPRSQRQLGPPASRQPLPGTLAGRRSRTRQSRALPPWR

[5] = target: T3, TGF-beta receptor type-1 (Homo sapiens) (UniProt P36897); assay: Inhibition of TGFBR1 (unknown origin) assessed as residual activity at 1000 nM by KINOMEscan analysis relative to control
T3 sequence (whole entry): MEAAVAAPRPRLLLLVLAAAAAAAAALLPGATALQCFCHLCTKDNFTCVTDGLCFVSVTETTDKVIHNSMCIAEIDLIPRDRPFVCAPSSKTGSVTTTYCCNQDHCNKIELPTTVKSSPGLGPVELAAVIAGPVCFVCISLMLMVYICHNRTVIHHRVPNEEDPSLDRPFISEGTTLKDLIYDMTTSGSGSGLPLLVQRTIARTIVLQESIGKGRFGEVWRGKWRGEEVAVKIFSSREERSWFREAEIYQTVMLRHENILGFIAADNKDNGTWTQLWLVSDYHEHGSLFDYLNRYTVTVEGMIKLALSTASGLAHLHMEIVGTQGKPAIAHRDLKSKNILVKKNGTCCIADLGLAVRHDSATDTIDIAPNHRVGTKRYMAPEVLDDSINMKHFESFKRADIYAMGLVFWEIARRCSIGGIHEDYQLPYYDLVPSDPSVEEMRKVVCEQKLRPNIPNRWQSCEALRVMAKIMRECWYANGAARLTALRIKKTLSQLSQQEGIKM

COc1cc2nc(C)nc(N[C@H](C)c3cccc(-c4cn[nH]c4)c3)c2cc1OC
Activity [1]: 100% | Activity [2]: 56% | Activity [3]: 100% | Activity [4]: 78% | Activity [5]: 100%

COc1cc2ncnc(N[C@H](C)c3cccc4ccccc34)c2cc1OC
Activity [1]: 94% | Activity [2]: 44% | Activity [3]: 100% | Activity [4]: 90% | Activity [5]: 100%
